The test system of assay [1] is PDE IV. Description: inhibition of PDE IV from human neutrophilic polymorphonuclear cells (PMNs). In kind it is biochemical. Particulars: for [IC50]theophylline / [IC50]substance: PDE IV human PMNs, quotient of IC50 values, theophylline = 1; for -log[IC50] PDE IV PNMs: human neutrophilic polymorphonuclear cells, cAMP 0.5 μmol/l, 37° C., 20 minutes. From the text:
(§1) The inhibition of phosphodiesterases of classes III (PDE III=high-affinity cAMP-PDE which can be inhibited by cGMP) and IV (PDE IV=high-affinity cAMP-PDE which cannot be inhibited by cGMP, Rolipram-sensitive) is regarded as being particularly conclusive for a bronchospasmolytic and/or antiinflammatory action which may be expected [H. Hidaka et al., Adv. Cycl. Nucl. Res. 13, 145 (1984); Tips 5, 237 (1984); R. Weishaar et al., J. Med. Chem. 28, 537 (1985); S. A. Harrison et al., Molec. Pharmac. 29, 506 (1986); J. Klein-Tebbe et al., Allergologie 12, 12 (1989); C. Schudt et al., Allergologie 12, 12 (1989)].
(§2) The PDE inhibition of the compounds according to the invention was therefore determined on a PDE III isolated from human platelets and PDE IV isolated from human neutrophilic polymorphonuclear cells (PMNs) and from the canine trachea. The phosphodiesterases III and IV are isolated by chromatography by the method of Polson et al., Biochem. Pharmacol. 31, 3403-3406 (1982).
(§3) The substances are dissolved in DMSO and diluted further. From a series of solutions diluted up to a hundred-fold, 2.1 μl portions are taken and 212 μl reaction mixture are added. The reaction mixture contains Hepes (100 mmol/l), DTE (5 mmol/l), MgCl2 (5 mmol/l), CaCl2 (10 μmol/l), BSA fraction V 0.5 mg/ml, cAMP 0.5 μmol/l, 2,8-^3 H-cAMP 250,000 cpm/ml (0.3 μCi/ml, s.a. 33.5 μCi/mmol) and SV (snake venom) (25 μg/212 μl test batch).
(§4) The reaction is started by addition of 10 μl PDE to the reaction mixture and to the substance batch. The mixtures are then incubated at 37° C. for 20 minutes. The reaction is stopped by heating at 95° C. for 45 seconds. After the samples have cooled, the SV solution is added, the 5-AMP formed being cleaved. After incubation for 30 minutes at 37° C., this reaction is stopped by addition of 1 ml anion exchanger suspension. The cAMP which remains is thereby bonded. The adenosine formed remains in the supernatant after centrifugation and can be measured in an aliquot by the radioactivity contained therein.

Assay [2] concerns histamine-induced bronchospasm. Description: histamine-induced bronchospasm on the anaesthetized guinea-pig. In kind it is in vivo. The method, then: The bronchospasmolytic action was furthermore determined on the model of "histamine-induced bronchospasm on the anaesthetized guinea-pig":
In this model, pharmacodynamic and toxic effects on internal sensitive receptors, on the respiration and on the cardiovascular system of guinea-pigs are recorded simultaneously [U. Kilian, E. Muller, E. Ch.
A histamine spasm before administration of the substance was compared with several histamine spasms after administration of the substance. The test substances were administered intravenously (i.v.) and/or intrajejunally (i.j.).

A further assay addresses T1, PDE III (Homo sapiens, UniProt Q14432).
T1 construct: PDE III isolated from human platelets; from tissue; host or cells: human platelets
Description: inhibition of PDE III isolated from human platelets. The class given is biochemical. Particulars: for [IC50]theophylline / [IC50]substance: PDE III, quotient of IC50 values, theophylline = 1; for IC50: human platelets, cAMP 0.5 μmol/l, 37° C., 20 minutes, read-out: -log[IC50] PDE III (converted).
Excerpt: as §1, §2, §3, §4

Assay [3] concerns PDE IV. Description: inhibition of PDE IV from the canine trachea. The class given is biochemical. As to conditions: for [IC50]theophylline / [IC50]substance: PDE IV canine trachea, quotient of IC50 values, theophylline = 1; for -log[IC50] PDE IV canine trachea: cAMP 0.5 μmol/l, 37° C., 20 minutes.
Excerpt: as §1, §2, §3, §4

Assay [4] concerns acetylcholine-induced bronchospasm. Description: protective action against acetylcholine-induced bronchospasm on the conscious guinea-pig. The class given is in vivo. As to conditions: Cavia porcellus, 0.5 h; verum, oral, 100 μmol/kg, 30 minutes after administration; protected = latency period at least three times; read-out: Number of animals protected/number of animals used (converted). The method, then:
The bronchospasmolytic action was additionally tested on the model of "Protective action against acetylcholine-induced bronchospasm on the conscious guinea-pig":
Guinea-pigs (250-350 g) are exposed in a closed Plexiglas cylinder (volume 5 l) to an acetylcholine mist (0.06% in 0.9% sodium chloride solution; ultrasonic mister Heyer Use 77) twice before administration of the substance at an interval of 20 minutes, and 30 minutes after administration of the substance. The time from the start of misting to the onset of clear respiratory exertion (under certain circumstances hypoxic convulsions in the lateral position) is measured and defined as the latency period. A prolonging of the latency period after administration of the substance to at least three times the average latency period before administration of the substance is regarded as a protective action, and the number of protected animals in the group is stated. The test substances are administered orally by means of a stomach tube (dose 100 μmol/kg, volume 1 ml/kg, suspending agent 4% Methocel suspension in 0.9% sodium chloride solution).
The test substance is administered perorally by means of a stomach tube (standard dose 100 μmol, volume 1 ml 4% Methocel suspension in 0.9% sodium chloride solution/kg). After 30 minutes, the animals are exposed to the acetylcholine mist again and the latency periods are measured. Prolonging of the latency period to at least three times the length is regarded as a protective action.

Assay [5] concerns trachea (tracheal ring chain of the guinea-pig). Description: trachea-relaxing action: relaxation of contractions generated by histamine, carbachol, prostaglandin, ovalbumin and leukotriene. The class given is cell-based. As to conditions: Cavia porcellus; read-out: trachea-relaxing action, contraction by OA (converted). The procedure:
(§5) The bronchospasmolytic action of the compounds on the tracheal ring chain of the guinea-pig was tested in vitro as follows: Four parallel tracheal ring chains, each consisting of 6 individual rings, of the guinea-pig (female and male, 430-600 g), in an organ bath [5 ml, Krebs-Henseleit solution with addition of phentolamine (10^-5 mol/l), 37° C., pretension of the organs 2 g, gassing with carbogen] develop a stable, tonic spontaneous contraction after about 20 to 30 minutes. Relaxation can be brought about on these permanently contracted organs under isometric measurement conditions by application of the test substance in a cumulatively semi-logarithmically increasing concentration (e.g. 1×10^-6 +2×10^-6 +7×10^-6 +2×10^-5etc. mol/l), a constant relaxation response being awaited after each individual dose of the test substance before the next higher concentration is applied. A complete dose/effect curve of the test substance is thus obtained over a period of 20 to 30 minutes. The particular relaxation is expressed as the percentage fraction of the maximum relaxation which can be achieved by addition of (-)isoprenaline (10^-6 mol/l). The concentration of the test substance which causes 50% of the maximum relaxation which can be achieved serves as a measure of the bronchodilatory activity, expressed by the negative logarithm of the EC50 mol/l: -log[EC50 ].
The trachea-relaxing action of compounds 3 and 4 was additionally tested by relaxation of the contractions generated by histamine (His), carbachol (CC), prostaglandin (PGF2alpha), ovalbumin (OA) and leukotriene (LTC4).

Assay [6] has as its system tracheal ring chain of the guinea-pig. Description: bronchospasmolytic action on the tracheal ring chain of the guinea-pig in vitro (relaxation of stable tonic spontaneous contraction). The class given is cell-based. As to conditions: for EC50: Cavia porcellus, EC50 in mol/l, 50% of the maximum relaxation achievable with (-)isoprenaline 10^-6 mol/l, spontaneous contraction, 37° C.; for [EC50]theophylline / [EC50]substance: quotient of EC50 values, theophylline = 1. The procedure:
as §5, with “mol/l).” for “mol/l). The concentration of the test substance which causes 50% of the maximum relaxation which can be achieved serves as a measure of the bronchodilatory activity, expressed by the negative logarithm of the EC50 mol/l: -log[EC50 ].”

Setting [7] is: i.j. (intrajejunal), 20 μmol/kg.
Setting [8] is: i.j. (intrajejunal), 60 μmol/kg.

These results are taken from patent US5236918A, “6-aryl-3-cyanaminopyridazines, their preparation and use and medicaments containing them” (BYK Gulden Lomberg Chemische Fabrik GmbH, priority 1989, dated 1993).

T1 sequence (Q14432 whole entry): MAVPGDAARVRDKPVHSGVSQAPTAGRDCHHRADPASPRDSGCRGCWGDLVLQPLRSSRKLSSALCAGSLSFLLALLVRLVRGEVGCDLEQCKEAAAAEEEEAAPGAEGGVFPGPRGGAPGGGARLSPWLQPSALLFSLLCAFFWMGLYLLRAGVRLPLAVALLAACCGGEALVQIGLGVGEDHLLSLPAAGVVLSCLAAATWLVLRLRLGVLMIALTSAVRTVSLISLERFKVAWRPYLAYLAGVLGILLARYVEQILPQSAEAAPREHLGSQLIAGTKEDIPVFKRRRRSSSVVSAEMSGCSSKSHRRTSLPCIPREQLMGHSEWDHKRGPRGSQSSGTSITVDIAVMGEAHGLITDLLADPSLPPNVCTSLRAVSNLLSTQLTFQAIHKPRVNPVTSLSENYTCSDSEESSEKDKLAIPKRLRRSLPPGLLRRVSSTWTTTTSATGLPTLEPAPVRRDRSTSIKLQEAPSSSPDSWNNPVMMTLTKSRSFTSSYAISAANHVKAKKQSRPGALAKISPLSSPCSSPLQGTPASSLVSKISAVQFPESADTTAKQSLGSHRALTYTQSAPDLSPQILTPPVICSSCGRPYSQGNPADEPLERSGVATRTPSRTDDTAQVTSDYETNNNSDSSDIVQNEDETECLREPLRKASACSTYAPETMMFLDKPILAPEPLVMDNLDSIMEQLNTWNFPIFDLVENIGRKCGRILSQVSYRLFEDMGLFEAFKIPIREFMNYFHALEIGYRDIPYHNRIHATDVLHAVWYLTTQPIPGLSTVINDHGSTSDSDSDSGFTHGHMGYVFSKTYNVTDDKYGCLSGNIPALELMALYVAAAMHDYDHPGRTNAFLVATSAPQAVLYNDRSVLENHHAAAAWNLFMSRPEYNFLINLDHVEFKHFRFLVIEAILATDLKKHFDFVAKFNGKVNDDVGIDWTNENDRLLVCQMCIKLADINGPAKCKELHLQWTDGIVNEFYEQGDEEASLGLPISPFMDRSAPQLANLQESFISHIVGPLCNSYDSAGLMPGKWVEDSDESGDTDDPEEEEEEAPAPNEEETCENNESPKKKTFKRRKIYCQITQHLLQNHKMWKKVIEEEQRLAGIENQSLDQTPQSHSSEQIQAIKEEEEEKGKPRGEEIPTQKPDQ

As a reminder, the IC50 is the concentration that inhibits the measured activity by half. Regarding `COc1ccc(-c2ccc(NC#N)nn2)cc1OC(C)C` [Compound 3, 3-Cyanamino-6-[4-methoxy-3-(1-methylethoxy)phenyl]pyridazine], the “[IC50]theophylline / [IC50]substance” value in the assay with PDE IV [1] is 117; at PDE III, 30.8; in the assay on PDE IV [3], 82.2. Further, the “-log[IC50] PDE IV PNMs” value with PDE IV [1] was determined as 5.82. The “Average percentage bronchospasmolytic action 0-1 h p. appl., % inhibition of the histamine-induced decrease in Vmaxe” value in assay [2] (setting [7]) is 29%; in assay [2] (setting [8]), 65%; in assay [2] (i.v., 20 μmol/kg), 28%; in assay [2] (i.v., 60 μmol/kg), 65%. Also, the IC50 at PDE III is 5250 nM. In addition, the “-log[IC50] PDE IV canine trachea” value in the assay on PDE IV [3] is 5.75. In addition, the responders at 100 µmol/kg in assay [4] was 70%. The EC50 was 646 nM in assay [5] and 417 nM in assay [6]. In addition, the “[EC50]theophylline / [EC50]substance” value in assay [6] came out at 324.

`COc1ccc(-c2ccc(NC#N)nn2)cc1OCC(C)C` [Compound 4, 3-Cyanamino-6-[4-methoxy-3-(2-methylpropoxy)phenyl]pyridazine]: the “[IC50]theophylline / [IC50]substance” value is 357 with PDE IV [1], 26.9 on PDE III and 355 in the assay with PDE IV [3]. Also, in the assay on PDE IV [1], the “-log[IC50] PDE IV PNMs” value was 6.33. For the same compound, the “Average percentage bronchospasmolytic action 0-1 h p. appl., % inhibition of the histamine-induced decrease in Vmaxe” value in assay [2] (setting [7]) turned out to be 39%; in assay [2] (setting [8]), 60%; in assay [2] (i.v., 20 μmol/kg) it was 37%; in assay [2] (i.v., 60 μmol/kg), 87%. Also, on PDE III, the IC50 was 6030 nM. The “-log[IC50] PDE IV canine trachea” value with PDE IV [3] amounted to 6.36. In addition, in assay [4], the responders at 100 µmol/kg is 85%. For the same compound, the EC50 in assay [5] was 398 nM; in assay [6], 112 nM. Moreover, the “[EC50]theophylline / [EC50]substance” value in assay [6] is given as 1203.

With `CCOc1cc(-c2ccc(NC#N)nn2)ccc1OC(F)F` [Compound 12, 3-Cyanamino-6-(4-difluoromethoxy-3-ethoxyphenyl)pyridazine], the “Average percentage bronchospasmolytic action 0-1 h p. appl., % inhibition of the histamine-induced decrease in Vmaxe” value in assay [2] (i.v., 20 μmol/kg) was found to be 50%. Further, in the assay with PDE IV [3], the “[IC50]theophylline / [IC50]substance” value was 97.8 and the “-log[IC50] PDE IV canine trachea” value was 5.80. Further, the responders at 100 µmol/kg in assay [4] is 70%. In addition, in assay [6], the EC50 was 2450 nM and the “[EC50]theophylline / [EC50]substance” value was 55.0.

Turning to `CCOc1ccc(-c2ccc(NC#N)nn2)cc1OCC(C)C` [Compound 13, 3-Cyanamino-6-[4-ethoxy-3-(2-methylpropoxy)phenyl]pyridazine], in the assay on PDE IV [1], the “[IC50]theophylline / [IC50]substance” value amounted to 263 and the “-log[IC50] PDE IV PNMs” value is listed as 6.18. Also, the “Average percentage bronchospasmolytic action 0-1 h p. appl., % inhibition of the histamine-induced decrease in Vmaxe” value in assay [2] (i.v., 20 μmol/kg) is recorded as 28%. Moreover, the responders at 100 µmol/kg in assay [4] was 65%. Also, in assay [6], the EC50 is 537 nM and the “[EC50]theophylline / [EC50]substance” value amounted to 251.

For `N#CNc1ccc(-c2ccc(OC(F)F)c(OCC(F)(F)F)c2)nn1` [Compound 20, 3-Cyanamino-6-[4-difluoromethoxy-3-(2,2,2-trifluoroethoxy)phenyl] pyridazine], in the assay on PDE IV [1], the “[IC50]theophylline / [IC50]substance” value is listed as 148 and the “-log[IC50] PDE IV PNMs” value came out at 5.93. Besides, in assay [4], the responders at 100 µmol/kg was 55%. Also, in assay [6], the EC50 was 2290 nM and the “[EC50]theophylline / [EC50]substance” value was 58.9.

As for `Cn1c(=O)c2[nH]cnc2n(C)c1=O` [Theophylline, theophylline, reference compound], the “-log[IC50] PDE IV PNMs” value in the assay with PDE IV [1] turned out to be 3.76. The “Average percentage bronchospasmolytic action 0-1 h p. appl., % inhibition of the histamine-induced decrease in Vmaxe” value in assay [2] (setting [7]) was determined as 11%; in assay [2] (setting [8]) it was 37%; in assay [2] (i.j. (intrajejunal), 100 μmol/kg), 45%; in assay [2] (i.v., 20 μmol/kg), 13%; in assay [2] (i.v., 60 μmol/kg) it was 25%; in assay [2] (i.v., 100 μmol/kg), 34%. Also, the “-log[IC50] PDE IV canine trachea” value in the assay with PDE IV [3] was determined as 3.81. Also, the responders at 100 µmol/kg in assay [4] is 30%. Further, the EC50 in assay [5] was 288000 nM.
